Source: US6471974B1, “N-chlorosulfamate compositions having enhanced antimicrobial efficacy” (S.C. Johnson & Son, Inc., priority 1999, dated 2002)
“Also recorded” adds a separate entry of the source.

Tests used:
[1] = Long-term stability at 40° C., NaOCl by iodometric titration and pH; format: physicochemical; settings: up to Day 58
Experimental: Preparation of a stock 3.0% stabilized hypochlorite solution (0.75 to 1.0 mole ratio of sulfamate to NaOCl, pH 4.9 citric acid buffer): Anhydrous citric acid (210.0 g), sulfamic acid (88.0 g) and sodium hydroxide (93.0 g) were dissolved in deionized water (1897.54 g). The reaction mixture was allowed to cool to room temperature (approximately 1 hour).
All stabilized hypochlorite-containing test formulas were prepared by further dilution of the 3.0% stabilized NaOCl stock solution. Where applicable, the appropriate amount of each dopant was added to a known volume of diluted stock solution. Solutions containing varying mole ratios of sulfamate to NaOCl (1.0 to 1.0 and 1.5 to 1.0) were prepared by adding solid sodium sulfamate, as required, to 1.0 liter portions of the diluted stock solution. For all “doped” formulas, the ratio of NaOCl to dopant was 1.0:0.20.
Long-term stability samples were stored in a 40° C. incubator. After cooling to room temperature (23° C.) the concentration of NaOCl was determined via iodometric titration. The experimentally determined concentration of NaOCl is expressed in units of molarity (M). The recorded pH of each formula is shown in parentheses.

Staphylococcus aureus = test: Sanitizer Test on glass slides, 1-minute contact time; format: cell-based; settings: S. aureus, 500 and 200 ppm TAC
Experimental: (§1) Sanitizer Test: Glass slides measuring 18×36 mm were washed in a dishwasher, placed in glass petri dishes on 2 pieces of Whatman no. 2 filter paper and autoclaved. The slides were inoculated with a 10 μl sterile bacterial loop. The inoculum was spread over the upper surface of the slide being careful not to exceed the edges of the slide. The inoculum was a 24 hour culture having a concentration of approximately 10^9 organisms per ml. Following inoculation, the slides were incubated at 35° C. for 30±5 minutes to allow the slides to dry. The test product was then sprayed liberally onto the test surface (6 sprays/slide—approximately 6 ml of product) and the slides were allowed to stand for the desired contact time. The slides were removed from the petri dish using flamed forceps after exposure to the test product for the specified contact time and placed into test tubes containing 15.0 ml of the desired neutralizer for neutralization of the test product. Both 2× Letheen Broth (Tween 80 & Lecithin) and Dey/Engley neutralizing broths were separately utilized. Test bacteria was recovered by vortexing each test tube for 15 seconds. Serial dilutions were made using diluent. The pour plate technique using Tryptic Soy Agar was used to obtain plate counts. Parallel tests were run using a citrate-buffered (pH 5) solution of the dopant at a concentration equal to that in the doped test solutions or a 0.01% solution of Triton X-100 (isooctylphenoxy-polyethoxyethanol with 9-10 moles oxyethylene) in an identical manner to serve as controls. Blank parallel controls, using sterile, de-ionized water as the test product, were also evaluated.
However, a 1-minute contact time using a glass slide test surface was employed. Staphylococcus aureus was the test organism used. The test products that were used are described below.
Results are reported as a bacterial reduction (log reduction) of the formulation

[2] = test system: Staphylococcus aureus (ATCC 25923); test: Sanitizer Test on glass slides, 5-minute contact time (parallels EPA Non-Food Contact Sanitizer Test DIS/TSS-10); format: cell-based; settings: S. aureus, dopant to hypochlorite 0.20 to 1.0, 985 ppm TAC
Experimental: The test method used to evaluate antimicrobial efficacy was the Sanitizer Test described below.
as §1
A 5-minute contact time using-a glass slide test surface was employed.
(§2) The test products used are described below.

[3] = test system: Klebsiella pneumoniae (ATCC 4352); test: Sanitizer Test on glass slides, 1-minute contact time; format: cell-based; settings: K. pneumoniae, 100 ppm TAC
Experimental: as §1, §2

Compound: CC1(C)NC(=O)NC1=O [5,5-dimethylhydantoin]
- effect of added dopant on long term stability of sulfamate-stabilized hypochlorite solutions (in words) [1]: does not alter the long termn stability
- antimicrobial effectiveness of stabilized hypochlorite solutions containing the dopant (in words) (Staphylococcus aureus): lowest levels of enhanced antimicrobial efficacy
- antimicrobial enhancing effect of dopant added to base stabilized hypochlorite composition (in words) [2]: significantly enhances the antimicrobial activity
- antimicrobial effectiveness of stabilized hypochlorite solutions containing the dopant (in words) [3]: have antimicrobial effectiveness against K. pneumoniae

Compound: O=C1CCC(=O)N1 [succinimide]
- antimicrobial effectiveness of stabilized hypochlorite solutions containing the dopant (in words) (Staphylococcus aureus): have antimicrobial effectiveness
- antimicrobial enhancing effect of dopant added to base stabilized hypochlorite composition (in words) [2]: significantly enhances the antimicrobial activity
- antimicrobial effectiveness of stabilized hypochlorite solutions containing the dopant (in words) [3]: have antimicrobial effectiveness against K. pneumoniae

Compound: O=c1[nH]c(=O)[nH]c(=O)[nH]1 [cyanuric acid]
- antimicrobial enhancing effect of dopant added to base stabilized hypochlorite composition (in words) [2]: do not appear to have an antimicrobial enhancing effect

Compound: NS(=O)(=O)c1ccc(C(=O)O)cc1 [4-carboxybenzenesulfonamide]
- antimicrobial enhancing effect of dopant added to base stabilized hypochlorite composition (in words) [2]: significantly enhances the antimicrobial activity

Compound: Nc1nc(N)nc(N)n1 [melamine]
- antimicrobial enhancing effect of dopant added to base stabilized hypochlorite composition (in words) [2]: do not appear to have an antimicrobial enhancing effect

Compound: O=C1NC2NC(=O)NC2N1 (stereo not shown) [Glycoluril, glycoluril]
- antimicrobial enhancing effect of dopant added to base stabilized hypochlorite composition (in words) [2]: modest antimicrobial benefit

Compound: NS(=O)(=O)c1ccccc1 [benzenesulfonamide]
- effect of added dopant on long term stability of sulfamate-stabilized hypochlorite solutions (in words) [1]: does not alter the long termn stability
- antimicrobial effectiveness of stabilized hypochlorite solutions containing the dopant (in words) (Staphylococcus aureus): most effective
- antimicrobial enhancing effect of dopant added to base stabilized hypochlorite composition (in words) [2]: significantly enhances the antimicrobial activity
- antimicrobial effectiveness of stabilized hypochlorite solutions containing the dopant (in words) [3]: have antimicrobial effectiveness against K. pneumoniae

Compound: Cc1ccc(S(N)(=O)=O)cc1 [toluenesulfonamide]
- antimicrobial enhancing effect of dopant added to base stabilized hypochlorite composition (in words) [2]: significantly enhances the antimicrobial activity; also recorded: antimicrobial enhancing ability
